Assay results: patent US6900193B1, “Structural modification of 19-norprogesterone I: 17-α-substituted-11-β-substituted-4-aryl and 21-substituted 19-norpregnadienedione as new antiprogestational agents” (The United States of America as represented by the …, priority 1996, dated 2005)
Marks after values point to notes of the source that are not given here.

Experiments:
[1] = molecular target: T1, glucocorticoid receptor (estrogen-primed rabbit thymus) (Oryctolagus cuniculus, UniProt P59667); experiment: Relative binding affinity, glucocorticoid receptor; conditions: Table 2; estrogen-primed rabbit thymus; dexamethasone = 100%
T1 construct: preparation of cytosols for the progesterone and glucocorticoid receptor assays; from tissue; host or cells: thymus of estradiol-primed immature female New Zealand White rabbits (cytosol)
T1 sequence (P59667 1-772): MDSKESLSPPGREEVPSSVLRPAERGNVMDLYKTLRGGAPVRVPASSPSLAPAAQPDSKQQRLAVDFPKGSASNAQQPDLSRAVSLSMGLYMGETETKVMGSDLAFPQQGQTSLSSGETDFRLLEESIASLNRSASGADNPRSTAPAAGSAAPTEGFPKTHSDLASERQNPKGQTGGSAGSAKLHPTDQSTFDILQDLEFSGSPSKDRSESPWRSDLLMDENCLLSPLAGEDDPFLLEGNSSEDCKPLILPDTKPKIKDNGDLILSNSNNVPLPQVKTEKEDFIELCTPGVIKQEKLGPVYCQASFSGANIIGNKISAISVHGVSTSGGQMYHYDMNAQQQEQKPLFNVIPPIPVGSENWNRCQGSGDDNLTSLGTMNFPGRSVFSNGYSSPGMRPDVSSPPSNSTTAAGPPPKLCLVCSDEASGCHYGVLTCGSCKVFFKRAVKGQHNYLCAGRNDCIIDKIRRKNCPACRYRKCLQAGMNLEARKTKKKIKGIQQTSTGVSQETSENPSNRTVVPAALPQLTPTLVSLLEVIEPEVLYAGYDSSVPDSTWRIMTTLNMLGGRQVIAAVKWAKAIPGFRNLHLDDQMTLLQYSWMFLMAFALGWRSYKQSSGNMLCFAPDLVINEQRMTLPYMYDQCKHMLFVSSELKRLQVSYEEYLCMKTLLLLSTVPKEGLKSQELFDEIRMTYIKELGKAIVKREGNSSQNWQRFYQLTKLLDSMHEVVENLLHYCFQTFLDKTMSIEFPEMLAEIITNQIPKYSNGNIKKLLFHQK

[2] = test system: pregnancy (number and condition of conceptuses); experiment: Postcoital test; format: in vivo, rat; conditions: rat, days 4-6 subcu
[3] = molecular target: T2, progesterone receptor (estrogen-primed rabbit uterus) (Oryctolagus cuniculus, UniProt P06186); experiment: Relative binding affinity, progesterone receptor; conditions: Table 2; estrogen-primed rabbit uterus; progesterone = 100%
T2 construct: preparation of cytosols for the progesterone and glucocorticoid receptor assays; from tissue; host or cells: uterus of estradiol-primed immature female New Zealand White rabbits (cytosol)
T2 sequence (P06186 1-930): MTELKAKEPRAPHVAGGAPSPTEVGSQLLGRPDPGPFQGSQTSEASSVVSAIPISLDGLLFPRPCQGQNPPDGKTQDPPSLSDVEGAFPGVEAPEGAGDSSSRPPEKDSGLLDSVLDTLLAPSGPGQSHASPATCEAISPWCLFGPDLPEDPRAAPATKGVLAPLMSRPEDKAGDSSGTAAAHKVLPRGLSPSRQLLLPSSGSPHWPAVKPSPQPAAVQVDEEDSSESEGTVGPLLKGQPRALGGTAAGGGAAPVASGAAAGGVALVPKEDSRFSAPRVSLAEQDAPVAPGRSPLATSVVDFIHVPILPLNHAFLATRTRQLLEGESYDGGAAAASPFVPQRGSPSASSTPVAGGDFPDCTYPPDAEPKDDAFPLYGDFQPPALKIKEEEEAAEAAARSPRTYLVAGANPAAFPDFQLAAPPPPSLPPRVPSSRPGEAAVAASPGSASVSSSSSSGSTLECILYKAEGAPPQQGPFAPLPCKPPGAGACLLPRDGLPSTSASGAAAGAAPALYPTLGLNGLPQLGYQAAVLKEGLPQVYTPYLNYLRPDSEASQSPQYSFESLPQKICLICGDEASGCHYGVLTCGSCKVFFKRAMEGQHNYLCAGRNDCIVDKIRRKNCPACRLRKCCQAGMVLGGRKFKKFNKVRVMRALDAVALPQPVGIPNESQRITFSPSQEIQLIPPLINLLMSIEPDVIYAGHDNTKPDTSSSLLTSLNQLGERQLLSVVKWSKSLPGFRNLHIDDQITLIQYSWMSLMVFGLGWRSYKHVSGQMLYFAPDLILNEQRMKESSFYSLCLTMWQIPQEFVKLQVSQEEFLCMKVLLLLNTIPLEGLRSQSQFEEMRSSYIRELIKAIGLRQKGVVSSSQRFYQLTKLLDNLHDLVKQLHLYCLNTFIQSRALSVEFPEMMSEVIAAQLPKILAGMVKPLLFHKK

[4] = test system: progesterone-induced endometrial proliferation; experiment: AntiClauberg test; format: in vivo, rabbit; conditions: Table 2, CDB-2914 = 100 (assigned)
Summary of the method: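 Immature NZW rabbits were estradiol-primed s.c. for 6 days, then given progesterone 0.8 mg/day s.c. plus compound orally or s.c. for 5 days. Uteri were sectioned and H&E-scored for endometrial glandular proliferation (McPhail). Percent inhibition was calculated per dose versus progesterone-only animals.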

BINDING AFFINITY Glucocortic [1]	BINDING AFFINITY Progester [3]	Compound	Postcoital MED100 (*) [2]	BIOLOGICAL ACTIVITY antiClauberg (subcu) ([4]; subcutaneous)	BIOLOGICAL ACTIVITY antiClauberg ([4]; oral)
89%	40%	CCCCCCC(=O)O[C@]1(C(C)=O)CC[C@H]2[C@@H]3CCC4=CC(=O)CCC4=C3[C@@H](c3ccc(N(C)C)cc3)C[C@@]21C [Compound 69D, 17α-Heptanoyloxy-11β-[4-(N,N-dimethylamino)phenyl]-19-norpregna-4,9-diene-3,20-dione]	inac-	weak	–
49%	91%	CCC(=O)OC1(C(C)=O)CCC2C3CCC4=CC(=O)CCC4=C3C(c3ccc(N(C)C)cc3)CC21C (stereo not drawn) [Compound 69C, 17α-Propionoxy-11β-[4-(N,N-dimethylamino)phenyl]-19-norpregna-4,9-diene-3,20-dione]	2* mg/day	–	˜10
